Results from the kinase profiling compilation of Christmann-Franck et al. (2016).

Tests used:
Test in all cases: radiometric filter-binding kinase assay, Kinase HotSpot
Conditions in all cases: compound 0.5 µM; ATP 10 µM
[1] = biological target: ABL2 (human) (UniProt P42684)
[2] = biological target: ACVRL1 (human) (UniProt P37023)
[3] = biological target: AKT3 (human) (UniProt Q9Y243)
[4] = biological target: BLK (human) (UniProt P51451)
[5] = biological target: CAMK1G (human) (UniProt Q96NX5)
[6] = biological target: CAMK4 (human) (UniProt Q16566)
[7] = biological target: CAMKK1 (human) (UniProt Q8N5S9)
[8] = biological target: CDC42BPB (human) (UniProt Q9Y5S2)
[9] = biological target: CDK1 CCNB1 (human) (UniProt P06493+P14635)
[10] = biological target: CDK6 CCND3 (human) (UniProt P30281+Q00534)
[11] = biological target: CLK2 (human) (UniProt P49760)
[12] = biological target: FER (human) (UniProt P16591)
[13] = biological target: FGFR2 (human) (UniProt P21802)
[14] = biological target: FRK (human) (UniProt P42685)
[15] = biological target: GRK4 (human) (UniProt P32298)
[16] = biological target: GRK7 (human) (UniProt Q8WTQ7)
[17] = biological target: HIPK2 (human) (UniProt Q9H2X6)
[18] = biological target: HIPK4 (human) (UniProt Q8NE63)
[19] = biological target: IKBKB (human) (UniProt O14920)
[20] = biological target: LCK (human) (UniProt P06239)
[21] = biological target: LRRK2 (human) (UniProt Q5S007)
[22] = biological target: MAP2K1 (human) (UniProt Q02750)
[23] = biological target: MAP3K14 (human) (UniProt Q99558)
[24] = biological target: MAP3K9 (human) (UniProt P80192)
[25] = biological target: MAPKAPK5 (human) (UniProt Q8IW41)
[26] = biological target: MST4 (human) (UniProt Q9P289)
[27] = biological target: NEK2 (human) (UniProt P51955)
[28] = biological target: NEK7 (human) (UniProt Q8TDX7)
[29] = biological target: PAK1 (human) (UniProt Q13153)
[30] = biological target: PDGFRB (human) (UniProt P09619)
[31] = biological target: PRKD1 (human) (UniProt Q15139)
[32] = biological target: RPS6KB1 (human) (UniProt P23443)
[33] = biological target: RPS6KB2 (human) (UniProt Q9UBS0)
[34] = biological target: SRPK3 (human) (UniProt Q9UPE1)
[35] = biological target: STK11 (human) (UniProt Q15831)
[36] = biological target: STK16 (human) (UniProt O75716)
[37] = biological target: STK3 (human) (UniProt Q13188)
[38] = biological target: TAOK2 (human) (UniProt Q9UL54)
[39] = biological target: TAOK3 (human) (UniProt Q9H2K8)
[40] = biological target: TEK (human) (UniProt Q02763)
[41] = biological target: TYRO3 (human) (UniProt Q06418)
[42] = biological target: ULK2 (human) (UniProt Q8IYT8)

Chain of GRK7 (human) (Q8WTQ7 whole entry, looked up): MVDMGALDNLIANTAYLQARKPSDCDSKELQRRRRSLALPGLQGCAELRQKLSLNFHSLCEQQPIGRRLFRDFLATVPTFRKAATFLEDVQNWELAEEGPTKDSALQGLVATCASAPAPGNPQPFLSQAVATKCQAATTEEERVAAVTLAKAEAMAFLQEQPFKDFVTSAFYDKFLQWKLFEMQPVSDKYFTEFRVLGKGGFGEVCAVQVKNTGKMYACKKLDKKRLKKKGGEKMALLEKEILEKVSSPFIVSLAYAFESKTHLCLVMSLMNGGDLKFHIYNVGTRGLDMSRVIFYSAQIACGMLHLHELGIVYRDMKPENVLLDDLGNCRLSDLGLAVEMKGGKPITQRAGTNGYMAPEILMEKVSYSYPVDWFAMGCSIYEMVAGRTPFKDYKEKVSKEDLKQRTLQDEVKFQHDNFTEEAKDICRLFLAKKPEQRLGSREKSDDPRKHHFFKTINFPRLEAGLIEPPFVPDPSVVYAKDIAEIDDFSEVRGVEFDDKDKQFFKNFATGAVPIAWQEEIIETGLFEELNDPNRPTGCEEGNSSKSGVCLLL
Chain of AKT3 (human) (Q9Y243 whole entry, looked up): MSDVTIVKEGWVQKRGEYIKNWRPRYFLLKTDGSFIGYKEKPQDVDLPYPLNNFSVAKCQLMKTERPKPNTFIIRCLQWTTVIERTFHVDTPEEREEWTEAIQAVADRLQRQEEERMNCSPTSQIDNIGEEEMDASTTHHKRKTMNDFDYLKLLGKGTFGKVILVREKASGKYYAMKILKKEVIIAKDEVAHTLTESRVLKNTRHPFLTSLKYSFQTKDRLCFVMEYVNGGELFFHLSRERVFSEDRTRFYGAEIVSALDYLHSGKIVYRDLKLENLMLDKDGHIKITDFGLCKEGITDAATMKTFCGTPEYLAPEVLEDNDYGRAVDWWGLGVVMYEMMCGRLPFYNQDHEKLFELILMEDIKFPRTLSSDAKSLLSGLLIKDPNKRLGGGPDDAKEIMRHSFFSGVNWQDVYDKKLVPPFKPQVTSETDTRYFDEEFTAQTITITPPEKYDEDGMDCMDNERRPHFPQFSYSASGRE
Chain of MST4 (human) (Q9P289 whole entry, looked up): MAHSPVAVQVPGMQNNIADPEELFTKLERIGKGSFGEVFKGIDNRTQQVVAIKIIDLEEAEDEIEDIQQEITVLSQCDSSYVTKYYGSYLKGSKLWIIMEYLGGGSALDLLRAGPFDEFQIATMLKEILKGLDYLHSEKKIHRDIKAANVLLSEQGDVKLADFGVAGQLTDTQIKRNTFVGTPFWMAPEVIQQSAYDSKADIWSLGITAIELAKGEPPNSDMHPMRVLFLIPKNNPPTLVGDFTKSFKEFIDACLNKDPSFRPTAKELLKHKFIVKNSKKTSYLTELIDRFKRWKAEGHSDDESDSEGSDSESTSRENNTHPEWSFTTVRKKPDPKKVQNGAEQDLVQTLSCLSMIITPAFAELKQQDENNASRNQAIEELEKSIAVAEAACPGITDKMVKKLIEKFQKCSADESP
Chain of CAMK4 (human) (Q16566 whole entry, looked up): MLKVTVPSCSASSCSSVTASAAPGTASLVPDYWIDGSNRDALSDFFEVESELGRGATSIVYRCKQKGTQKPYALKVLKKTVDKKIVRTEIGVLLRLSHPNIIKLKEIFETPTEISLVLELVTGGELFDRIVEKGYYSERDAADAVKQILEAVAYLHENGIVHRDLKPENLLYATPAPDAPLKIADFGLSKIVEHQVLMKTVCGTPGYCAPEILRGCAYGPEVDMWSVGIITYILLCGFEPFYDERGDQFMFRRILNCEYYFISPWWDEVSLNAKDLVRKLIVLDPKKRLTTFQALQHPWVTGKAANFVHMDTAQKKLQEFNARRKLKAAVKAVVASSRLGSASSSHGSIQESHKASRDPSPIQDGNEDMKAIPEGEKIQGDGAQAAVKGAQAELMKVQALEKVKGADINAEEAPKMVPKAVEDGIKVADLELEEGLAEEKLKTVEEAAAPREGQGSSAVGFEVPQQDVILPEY
Chain of CDC42BPB (human) (Q9Y5S2 whole entry, looked up): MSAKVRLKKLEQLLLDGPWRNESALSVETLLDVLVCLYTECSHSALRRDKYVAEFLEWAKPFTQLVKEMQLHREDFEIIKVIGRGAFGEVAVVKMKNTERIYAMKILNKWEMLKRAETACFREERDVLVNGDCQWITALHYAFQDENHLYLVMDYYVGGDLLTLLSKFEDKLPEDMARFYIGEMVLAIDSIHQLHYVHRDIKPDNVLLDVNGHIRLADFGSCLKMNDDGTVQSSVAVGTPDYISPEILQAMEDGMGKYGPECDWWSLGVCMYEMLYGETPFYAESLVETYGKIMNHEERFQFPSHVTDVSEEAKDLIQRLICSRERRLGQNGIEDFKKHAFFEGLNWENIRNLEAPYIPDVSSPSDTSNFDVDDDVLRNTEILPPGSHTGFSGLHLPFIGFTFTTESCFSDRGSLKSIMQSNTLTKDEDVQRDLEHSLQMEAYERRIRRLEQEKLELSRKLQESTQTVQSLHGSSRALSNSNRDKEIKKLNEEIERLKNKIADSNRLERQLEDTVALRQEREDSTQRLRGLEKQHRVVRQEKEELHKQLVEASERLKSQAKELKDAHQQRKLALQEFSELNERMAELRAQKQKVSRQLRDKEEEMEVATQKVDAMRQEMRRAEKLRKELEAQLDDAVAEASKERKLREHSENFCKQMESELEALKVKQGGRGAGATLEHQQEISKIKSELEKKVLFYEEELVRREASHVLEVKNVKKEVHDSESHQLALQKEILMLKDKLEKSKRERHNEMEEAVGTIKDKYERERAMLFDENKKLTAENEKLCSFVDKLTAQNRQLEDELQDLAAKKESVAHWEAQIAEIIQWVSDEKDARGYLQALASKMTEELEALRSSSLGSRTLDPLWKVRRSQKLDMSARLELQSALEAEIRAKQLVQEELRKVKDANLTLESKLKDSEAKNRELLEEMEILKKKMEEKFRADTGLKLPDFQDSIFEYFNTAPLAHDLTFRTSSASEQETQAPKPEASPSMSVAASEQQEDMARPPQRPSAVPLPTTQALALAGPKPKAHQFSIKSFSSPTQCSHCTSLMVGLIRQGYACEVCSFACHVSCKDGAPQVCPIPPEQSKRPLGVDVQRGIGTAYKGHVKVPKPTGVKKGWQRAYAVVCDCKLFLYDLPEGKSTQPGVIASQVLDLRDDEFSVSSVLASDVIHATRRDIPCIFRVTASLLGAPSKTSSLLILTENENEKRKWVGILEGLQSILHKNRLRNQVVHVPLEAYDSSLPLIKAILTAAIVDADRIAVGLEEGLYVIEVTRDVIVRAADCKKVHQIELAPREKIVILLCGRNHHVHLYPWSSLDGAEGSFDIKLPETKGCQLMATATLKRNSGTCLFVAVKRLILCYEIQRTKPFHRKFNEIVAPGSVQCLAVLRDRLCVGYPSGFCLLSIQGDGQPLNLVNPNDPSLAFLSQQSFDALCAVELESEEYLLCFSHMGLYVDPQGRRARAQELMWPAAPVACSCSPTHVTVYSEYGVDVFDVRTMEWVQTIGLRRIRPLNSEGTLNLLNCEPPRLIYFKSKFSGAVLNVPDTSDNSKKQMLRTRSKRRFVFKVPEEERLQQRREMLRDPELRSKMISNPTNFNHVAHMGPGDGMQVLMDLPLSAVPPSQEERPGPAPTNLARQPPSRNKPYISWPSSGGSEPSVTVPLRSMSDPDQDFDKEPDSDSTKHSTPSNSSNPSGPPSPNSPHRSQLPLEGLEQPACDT
Chain of CDK6 CCND3 (human) (P30281 whole entry, looked up): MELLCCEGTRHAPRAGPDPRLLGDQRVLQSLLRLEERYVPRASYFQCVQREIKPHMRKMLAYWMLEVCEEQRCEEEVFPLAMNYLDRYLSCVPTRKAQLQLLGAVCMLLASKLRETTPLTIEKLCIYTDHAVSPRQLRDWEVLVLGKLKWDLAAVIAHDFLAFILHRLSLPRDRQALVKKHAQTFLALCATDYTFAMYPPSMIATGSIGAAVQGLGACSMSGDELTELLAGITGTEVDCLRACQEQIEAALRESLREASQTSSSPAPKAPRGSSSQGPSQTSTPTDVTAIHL
Chain of CDK6 CCND3 (human) (Q00534 whole entry, looked up): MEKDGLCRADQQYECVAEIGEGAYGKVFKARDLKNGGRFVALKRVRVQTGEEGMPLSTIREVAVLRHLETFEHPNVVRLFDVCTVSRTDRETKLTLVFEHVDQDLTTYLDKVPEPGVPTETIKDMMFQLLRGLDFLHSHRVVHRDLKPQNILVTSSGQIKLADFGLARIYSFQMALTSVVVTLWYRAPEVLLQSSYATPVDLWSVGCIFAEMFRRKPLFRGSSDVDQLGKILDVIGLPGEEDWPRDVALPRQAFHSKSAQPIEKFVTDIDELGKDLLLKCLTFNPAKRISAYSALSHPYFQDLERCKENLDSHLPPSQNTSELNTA
Chain of RPS6KB1 (human) (P23443 whole entry, looked up): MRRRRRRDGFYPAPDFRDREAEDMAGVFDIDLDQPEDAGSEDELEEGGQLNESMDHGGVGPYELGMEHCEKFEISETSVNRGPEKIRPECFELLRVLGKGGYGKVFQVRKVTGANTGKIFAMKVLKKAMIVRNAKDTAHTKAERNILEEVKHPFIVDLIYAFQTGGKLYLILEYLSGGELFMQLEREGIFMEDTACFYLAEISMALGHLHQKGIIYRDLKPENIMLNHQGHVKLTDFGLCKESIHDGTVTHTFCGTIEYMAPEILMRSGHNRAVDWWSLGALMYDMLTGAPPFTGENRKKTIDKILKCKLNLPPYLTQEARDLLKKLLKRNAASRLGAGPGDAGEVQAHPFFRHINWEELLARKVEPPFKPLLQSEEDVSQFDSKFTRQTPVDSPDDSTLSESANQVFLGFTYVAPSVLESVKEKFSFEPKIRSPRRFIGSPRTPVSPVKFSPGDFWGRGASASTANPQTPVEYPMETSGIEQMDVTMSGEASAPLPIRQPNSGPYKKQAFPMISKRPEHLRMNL

Which results are given for Cc1cncc2cccc(S(=O)(=O)N3CCCN(C(=O)CN)C[C@H]3C)c12?
residual activity [1]: 98.9%; residual activity [2]: 99.2%; residual activity [3]: 98.8%; residual activity [4]: 97.7%; residual activity [5]: 94.6%; residual activity [6]: 90.6%; residual activity [7]: 115%; residual activity [8]: 105%; residual activity [9]: 96.9%; residual activity [10]: 104%; residual activity [11]: 102%; residual activity [12]: 66%; residual activity [13]: 98.4%; residual activity [14]: 114%; residual activity [15]: 94%; residual activity [16]: 88.8%; residual activity [17]: 90.2%; residual activity [18]: 91.1%; residual activity [19]: 109%; residual activity [20]: 97%; residual activity [21]: 54.6%; residual activity [22]: 94.9%; residual activity [23]: 109%; residual activity [24]: 94.4%; residual activity [25]: 94.2%; residual activity [26]: 107%; residual activity [27]: 105%; residual activity [28]: 103%; residual activity [29]: 98.1%; residual activity [30]: 104%; residual activity [31]: 96.7%; residual activity [32]: 93.3%; residual activity [33]: 99.3%; residual activity [34]: 99.9%; residual activity [35]: 86.5%; residual activity [36]: 97.9%; residual activity [37]: 104%; residual activity [38]: 94%; residual activity [39]: 96.2%; residual activity [40]: 98.6%; residual activity [41]: 98.9%; residual activity [42]: 98.8%

With CS(=O)(=O)CCNCc1ccc(-c2ccc3ncnc(Nc4ccc(OCc5cccc(F)c5)c(Cl)c4)c3c2)o1 as the compound, how does the residual activity [1] read?
The residual activity was 97.3%.

What about the residual activity [2] of the same compound?
The residual activity was 105%.

And the residual activity [3]?
The residual activity was 83.5%.

And the residual activity [4]?
Its residual activity is 95.9%.

What about the residual activity [5] of the same compound?
The residual activity was 102%.

What about the residual activity [6] of the same compound?
Its residual activity is 107%.

And the residual activity [7]?
The residual activity was 98.8%.

What about the residual activity [8] of the same compound?
Its residual activity is 95.7%.

What about the residual activity [9] of the same compound?
Its residual activity is 100%.

And the residual activity [10]?
Its residual activity is 120%.

What about the residual activity [11] of the same compound?
Its residual activity is 95.1%.

And the residual activity [12]?
The residual activity was 94.6%.

And the residual activity [13]?
Its residual activity is 96.4%.

And the residual activity [14]?
Its residual activity is 104%.

And the residual activity [15]?
The residual activity was 90.3%.

And the residual activity [16]?
Its residual activity is 95.8%.

And the residual activity [17]?
Its residual activity is 104%.

And the residual activity [18]?
Its residual activity is 108%.

What about the residual activity [19] of the same compound?
Its residual activity is 81%.

And the residual activity [20]?
The residual activity was 94.2%.

And the residual activity [21]?
The residual activity was 76.9%.

And the residual activity [22]?
The residual activity was 105%.

And the residual activity [23]?
Its residual activity is 109%.

What about the residual activity [24] of the same compound?
The residual activity was 112%.

And the residual activity [25]?
The residual activity was 92.8%.

What about the residual activity [26] of the same compound?
The residual activity was 110%.

What about the residual activity [27] of the same compound?
Its residual activity is 118%.

What about the residual activity [28] of the same compound?
The residual activity was 98.7%.

And the residual activity [29]?
The residual activity was 110%.

What about the residual activity [30] of the same compound?
The residual activity was 92%.

What about the residual activity [31] of the same compound?
Its residual activity is 99.4%.

What about the residual activity [32] of the same compound?
Its residual activity is 95.7%.

What about the residual activity [33] of the same compound?
Its residual activity is 100%.

What about the residual activity [34] of the same compound?
Its residual activity is 104%.

What about the residual activity [35] of the same compound?
The residual activity was 106%.

What about the residual activity [36] of the same compound?
The residual activity was 97.1%.

And the residual activity [37]?
The residual activity was 93.7%.

What about the residual activity [38] of the same compound?
Its residual activity is 105%.

And the residual activity [39]?
The residual activity was 101%.

And the residual activity [40]?
The residual activity was 93.2%.

What about the residual activity [41] of the same compound?
The residual activity was 98.9%.

And the residual activity [42]?
The residual activity was 104%.

With O=C1Nc2ccc(Br)cc2/C1=C\c1cc2c([nH]1)CCCC2 as the compound, how does the residual activity [1] read?
Its residual activity is 82.6%.

What about the residual activity [2] of the same compound?
Its residual activity is 103%.

What about the residual activity [3] of the same compound?
Its residual activity is 96.6%.

What about the residual activity [4] of the same compound?
Its residual activity is 74.4%.

And the residual activity [5]?
The residual activity was 103%.

What about the residual activity [6] of the same compound?
The residual activity was 97.5%.

What about the residual activity [7] of the same compound?
The residual activity was 69.6%.

What about the residual activity [8] of the same compound?
Its residual activity is 114%.

And the residual activity [9]?
The residual activity was 98.5%.

What about the residual activity [10] of the same compound?
The residual activity was 85.8%.

And the residual activity [11]?
Its residual activity is 88.6%.

What about the residual activity [12] of the same compound?
Its residual activity is 74.7%.

What about the residual activity [13] of the same compound?
Its residual activity is 87.4%.

What about the residual activity [14] of the same compound?
Its residual activity is 91%.

And the residual activity [15]?
The residual activity was 101%.

And the residual activity [16]?
The residual activity was 85.2%.

What about the residual activity [17] of the same compound?
Its residual activity is 91%.

And the residual activity [18]?
The residual activity was 104%.

And the residual activity [19]?
The residual activity was 102%.

What about the residual activity [20] of the same compound?
The residual activity was 84.5%.

And the residual activity [21]?
Its residual activity is 7.03%.

And the residual activity [22]?
Its residual activity is 84.8%.

What about the residual activity [23] of the same compound?
Its residual activity is 112%.

And the residual activity [24]?
Its residual activity is 53.4%.

What about the residual activity [25] of the same compound?
The residual activity was 90.6%.

And the residual activity [26]?
The residual activity was 87.9%.

What about the residual activity [27] of the same compound?
The residual activity was 87.9%.

What about the residual activity [28] of the same compound?
Its residual activity is 103%.

And the residual activity [29]?
The residual activity was 95.7%.

And the residual activity [30]?
Its residual activity is 58.8%.

What about the residual activity [31] of the same compound?
The residual activity was 93.8%.

What about the residual activity [32] of the same compound?
Its residual activity is 91.9%.

And the residual activity [33]?
The residual activity was 102%.

What about the residual activity [34] of the same compound?
The residual activity was 77.8%.

And the residual activity [35]?
The residual activity was 88.7%.

What about the residual activity [36] of the same compound?
Its residual activity is 94.3%.

And the residual activity [37]?
Its residual activity is 60.7%.

What about the residual activity [38] of the same compound?
The residual activity was 89.4%.

And the residual activity [39]?
Its residual activity is 75.3%.

What about the residual activity [40] of the same compound?
The residual activity was 98.2%.

And the residual activity [41]?
The residual activity was 104%.

And the residual activity [42]?
The residual activity was 114%.

What does the source list for Cc1cccc(-c2nc(C(C)(C)C)[nH]c2-c2ccc3c(c2)OCO3)n1?
residual activity [1]: 95.7%; residual activity [2]: 127%; residual activity [3]: 94.7%; residual activity [4]: 98.5%; residual activity [5]: 98.7%; residual activity [6]: 100%; residual activity [7]: 103%; residual activity [8]: 102%; residual activity [9]: 100%; residual activity [10]: 98%; residual activity [11]: 95.2%; residual activity [12]: 85.4%; residual activity [13]: 105%; residual activity [14]: 98.8%; residual activity [15]: 101%; residual activity [16]: 103%; residual activity [17]: 101%; residual activity [18]: 107%; residual activity [19]: 105%; residual activity [20]: 97.9%; residual activity [21]: 103%; residual activity [22]: 93.3%; residual activity [23]: 109%; residual activity [24]: 94%; residual activity [25]: 96.1%; residual activity [26]: 95.5%; residual activity [27]: 107%; residual activity [28]: 106%; residual activity [29]: 96.3%; residual activity [30]: 106%; residual activity [31]: 92.3%; residual activity [32]: 95.9%; residual activity [33]: 102%; residual activity [34]: 95.1%; residual activity [35]: 91.3%; residual activity [36]: 90.1%; residual activity [37]: 97.7%; residual activity [38]: 87.6%; residual activity [39]: 102%; residual activity [40]: 95.2%; residual activity [41]: 102%; residual activity [42]: 75.4%
